Data: the NIST ThermoML archive (doi:10.1016/j.fluid.2005.07.008)
Several values for one entry are separate records, joined by “and”; a condition that tells them apart may be missing. Equal values may be shown once. Numbers after ± are expanded uncertainties.

Conditions: Liquid

Row | SMILES | vapor or sublimation pressure (298.15 K) | vapor or sublimation pressure (303.15 K) | vapor or sublimation pressure (308.15 K) | vapor or sublimation pressure (313.15 K) | vapor or sublimation pressure (318.15 K) [kPa] | vapor or sublimation pressure (323.15 K) [kPa]
1 | CCO [ethanol] | 7.876 ± 0.32 kPa | 10.47 ± 0.38 kPa | 13.77 ± 0.47 kPa | 17.93 ± 0.57 kPa |  | 
2 | CCCO [propan-1-ol] | 2.786 ± 0.19 kPa | 3.826 ± 0.22 kPa | 5.199 ± 0.25 kPa | 6.986 ± 0.3 kPa |  | 
3 | CO [methanol] | 16.97 ± 0.071 kPa and 16.96 ± 0.55 kPa | 21.88 ± 0.086 kPa and 21.88 ± 0.67 kPa | 27.96 ± 0.11 kPa and 27.96 ± 0.82 kPa | 35.44 ± 0.13 kPa and 35.45 ± 1 kPa | 44.54 ± 0.16 | 55.58 ± 0.19
4 | c1ccccc1 [benzene] | 12.7 ± 0.44 kPa | 15.92 ± 0.52 kPa | 19.66 ± 0.61 kPa | 24.33 ± 0.73 kPa |  | 
